Test results reported in PubChem BioAssay (NCI).
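Grown in 96-well plates, cells were treated for 48 hours with each compound at five concentrations. Insufficient inhibition: endpoint recorded as highest concentration tested. GI50 is the concentration that inhibits growth by half. TGI: concentration producing complete growth inhibition.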

What was measured:
Experiment in all cases: inhibition of tumour cell growth, NCI panel, 48 h
[1] = test system: 786-0 renal
[2] = test system: A498 renal
[3] = test system: A549 NSCLC
[4] = test system: ACHN renal
[5] = test system: BT-549 breast
[6] = test system: CAKI-1 renal
[7] = test system: CCRF-CEM leukemia
[8] = test system: COLO 205 colon
[9] = test system: DU-145 prostate
[10] = test system: HCC-2998 colon
[11] = test system: HCT-116 colon
[12] = test system: HCT-15 colon
[13] = test system: HL-60(TB) leukemia
[14] = test system: HOP-62 NSCLC
[15] = test system: HOP-92 NSCLC
[16] = test system: HS 578T breast
[17] = test system: HT29 colon
[18] = test system: IGROV1 ovarian
[19] = test system: K-562 leukemia
[20] = test system: KM12 colon
[21] = test system: LOX IMVI melanoma
[22] = test system: M14 melanoma
[23] = test system: MALME-3M melanoma
[24] = test system: MCF7 breast
[25] = test system: MDA-MB-231 breast
[26] = test system: MDA-MB-435
[27] = test system: MOLT-4 leukemia
[28] = test system: NCI-H226 lung
[29] = test system: NCI-H23 lung
[30] = test system: NCI-H460 lung
[31] = test system: NCI-H522 lung
[32] = test system: NCI/ADR-RES ovarian
[33] = test system: OVCAR-3 ovarian
[34] = test system: OVCAR-4 ovarian
[35] = test system: OVCAR-5 ovarian
[36] = test system: OVCAR-8 ovarian
[37] = test system: PC-3 prostate
[38] = test system: RPMI-8226 leukemia
[39] = test system: RXF 393 renal
[40] = test system: SF-268 CNS
[41] = test system: SF-295 CNS
[42] = test system: SF-539 CNS
[43] = test system: SK-MEL-2 melanoma
[44] = test system: SK-MEL-28 melanoma
[45] = test system: SK-MEL-5 melanoma
[46] = test system: SK-OV-3 ovarian
[47] = test system: SN12C renal
[48] = test system: SNB-19 CNS
[49] = test system: SNB-75 CNS
[50] = test system: SR leukemia
[51] = test system: SW-620 colon
[52] = test system: T-47D breast
[53] = test system: TK-10 renal
[54] = test system: U251 CNS
[55] = test system: UACC-257 melanoma
[56] = test system: UACC-62 melanoma
[57] = test system: UO-31 renal
[58] = test system: EKVX NSCLC

Compound: CCN(Cc1ccncc1)c1ccc(CO)c(Cl)c1
- GI50 [1]: > 57000 nM
- TGI [1]: > 100000 nM
- GI50 [2]: 52.5 nM
- TGI [2]: 203 nM
- GI50 [3]: 8480 nM
- TGI [3]: > 100000 nM
- GI50 [4]: > 100000 nM
- TGI [4]: > 100000 nM
- GI50 [5]: > 100000 nM
- TGI [5]: > 100000 nM
- GI50 [6]: 61600 nM
- TGI [6]: > 100000 nM
- GI50 [7]: > 100000 nM
- TGI [7]: > 100000 nM
- GI50 [8]: 1770 nM
- TGI [8]: 6340 nM
- GI50 [9]: > 100000 nM
- TGI [9]: > 100000 nM
- GI50 [10]: 22000 nM
- TGI [10]: > 100000 nM
- GI50 [11]: 352 nM
- TGI [11]: > 100000 nM
- GI50 [12]: > 100000 nM
- TGI [12]: > 100000 nM
- GI50 [13]: > 32000 nM
- TGI [13]: > 100000 nM
- GI50 [14]: 5030 nM
- TGI [14]: > 100000 nM
- GI50 [15]: 2690 nM
- TGI [15]: > 74100 nM
- GI50 [16]: > 100000 nM
- TGI [16]: > 100000 nM
- GI50 [17]: 4070 nM
- TGI [17]: > 100000 nM
- GI50 [18]: 372 nM
- TGI [18]: 2480 nM
- GI50 [19]: 5620 nM
- TGI [19]: > 100000 nM
- GI50 [20]: > 100000 nM
- TGI [20]: > 100000 nM
- GI50 [21]: > 100000 nM
- TGI [21]: > 100000 nM
- GI50 [22]: > 100000 nM
- TGI [22]: > 100000 nM
- GI50 [23]: > 100000 nM
- TGI [23]: > 100000 nM
- GI50 [24]: 589 nM
- TGI [24]: > 100000 nM
- GI50 [25]: > 100000 nM
- TGI [25]: > 100000 nM
- GI50 [26]: > 100000 nM
- TGI [26]: > 100000 nM
- GI50 [27]: > 100000 nM
- TGI [27]: > 100000 nM
- GI50 [28]: 127 nM
- TGI [28]: 320 nM
- GI50 [29]: > 100000 nM
- TGI [29]: > 100000 nM
- GI50 [30]: 638 nM
- TGI [30]: > 100000 nM
- GI50 [31]: > 100000 nM
- TGI [31]: > 100000 nM
- GI50 [32]: 81100 nM
- TGI [32]: > 100000 nM
- GI50 [33]: 1140 nM
- TGI [33]: 4670 nM
- GI50 [34]: 548 nM
- TGI [34]: 6270 nM
- GI50 [35]: 152 nM
- TGI [35]: 584 nM
- GI50 [36]: 96900 nM
- TGI [36]: > 100000 nM
- GI50 [37]: > 100000 nM
- TGI [37]: > 100000 nM
- GI50 [38]: 15600 nM
- TGI [38]: > 100000 nM
- TGI [39]: > 100000 nM
- GI50 [40]: > 100000 nM
- TGI [40]: > 100000 nM
- GI50 [41]: 951 nM
- TGI [41]: > 56300 nM
- GI50 [42]: > 100000 nM
- TGI [42]: > 100000 nM
- GI50 [43]: > 24700 nM
- TGI [43]: > 100000 nM
- GI50 [44]: > 100000 nM
- TGI [44]: > 100000 nM
- GI50 [45]: 23800 nM
- TGI [45]: > 100000 nM
- GI50 [46]: > 76100 nM
- TGI [46]: > 100000 nM
- GI50 [47]: > 100000 nM
- TGI [47]: > 100000 nM
- GI50 [48]: > 100000 nM
- TGI [48]: > 100000 nM
- GI50 [49]: > 77800 nM
- TGI [49]: > 100000 nM
- GI50 [50]: > 100000 nM
- TGI [50]: > 100000 nM
- GI50 [51]: 3740 nM
- TGI [51]: > 100000 nM
- GI50 [52]: 367 nM
- TGI [52]: 2840 nM
- GI50 [53]: 94.5 nM
- TGI [53]: 340 nM
- GI50 [54]: 4220 nM
- TGI [54]: > 100000 nM
- GI50 [55]: 237 nM
- TGI [55]: 738 nM
- GI50 [56]: 333 nM
- TGI [56]: 2170 nM
- GI50 [57]: 24900 nM
- TGI [57]: > 100000 nM

Compound: Nc1cc2c([nH]c[n+]2CC#CCCl)c(SCC#CCCl)n1
- GI50 [1]: 1270 nM
- TGI [1]: 3050 nM
- GI50 [2]: 1100 nM
- TGI [2]: 2440 nM
- GI50 [4]: 580 nM
- TGI [4]: 2940 nM
- GI50 [5]: 1150 nM
- TGI [5]: 2420 nM
- GI50 [6]: 331 nM
- TGI [6]: 1360 nM
- GI50 [7]: 562 nM
- TGI [7]: > 100000 nM
- GI50 [8]: 1460 nM
- TGI [8]: 2900 nM
- GI50 [9]: 1050 nM
- TGI [9]: 2340 nM
- GI50 [58]: 1250 nM
- TGI [58]: 2760 nM
- GI50 [10]: 1770 nM
- TGI [10]: 3170 nM
- GI50 [11]: 738 nM
- TGI [11]: 2350 nM
- GI50 [12]: 1220 nM
- TGI [12]: 2890 nM
- GI50 [13]: 388 nM
- TGI [13]: 2640 nM
- GI50 [14]: 1400 nM
- TGI [14]: 2990 nM
- GI50 [15]: 1840 nM
- TGI [15]: 3860 nM
- GI50 [16]: 1690 nM
- TGI [16]: 7470 nM
- GI50 [17]: 883 nM
- TGI [17]: 2520 nM
- GI50 [19]: 1970 nM
- TGI [19]: > 100000 nM
- GI50 [20]: 1250 nM
- TGI [20]: 2680 nM
- GI50 [21]: 363 nM
- TGI [21]: 1440 nM
- GI50 [22]: 1110 nM
- TGI [22]: 2490 nM
- GI50 [23]: 1090 nM
- TGI [23]: 3170 nM
- GI50 [24]: 442 nM
- TGI [24]: 2180 nM
- GI50 [25]: 1390 nM
- TGI [25]: 3200 nM
- GI50 [26]: 1090 nM
- TGI [26]: 2630 nM
- GI50 [27]: 1320 nM
- TGI [27]: > 100000 nM
- GI50 [28]: 1220 nM
- TGI [28]: 4120 nM
- GI50 [29]: 1230 nM
- TGI [29]: 2620 nM
- GI50 [30]: 374 nM
- TGI [30]: 1500 nM
- GI50 [31]: 522 nM
- TGI [31]: 2080 nM
- GI50 [32]: 1710 nM
- TGI [32]: 4240 nM
- GI50 [33]: 592 nM
- TGI [33]: 1960 nM
- GI50 [34]: 1570 nM
- TGI [34]: 7170 nM
- GI50 [35]: 2130 nM
- TGI [35]: 3680 nM
- GI50 [36]: 1620 nM
- TGI [36]: 6020 nM
- GI50 [37]: 1400 nM
- TGI [37]: 4340 nM
- GI50 [38]: 1000 nM
- TGI [38]: 6570 nM
- GI50 [39]: 1200 nM
- TGI [39]: 2560 nM
- GI50 [40]: 552 nM
- TGI [40]: 2010 nM
- GI50 [41]: 1540 nM
- TGI [41]: 3080 nM
- GI50 [42]: 1620 nM
- TGI [42]: 3240 nM
- GI50 [43]: 1650 nM
- TGI [43]: 4470 nM
- GI50 [44]: 1340 nM
- TGI [44]: 2750 nM
- GI50 [45]: 1190 nM
- TGI [45]: 2430 nM
- GI50 [46]: 1370 nM
- TGI [46]: 2810 nM
- GI50 [47]: 1160 nM
- TGI [47]: 3420 nM
- GI50 [48]: 1400 nM
- TGI [48]: 2840 nM
- GI50 [49]: 1140 nM
- TGI [49]: 2400 nM
- GI50 [50]: 336 nM
- TGI [50]: 16400 nM
- GI50 [51]: 1170 nM
- TGI [51]: 2700 nM
- GI50 [52]: 1120 nM
- TGI [52]: 2450 nM
- GI50 [53]: 1420 nM
- TGI [53]: 3040 nM
- GI50 [55]: 821 nM
- TGI [55]: 2740 nM
- GI50 [56]: 455 nM
- TGI [56]: 1860 nM
- GI50 [57]: 763 nM
- TGI [57]: 2330 nM
